ChEMBL document CHEMBL1201862, “PubChem BioAssay data set” (2004)
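Tested at 5 concentrations; 48 h exposure; 96-well plates; endpoints linearly interpolated, else capped at highest concentration. At the GI50, growth is halved.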 Calls of active or inactive are those of the source. No stated cut-off is given here; in the data, active = GI50 up to about 1.1 µM and inactive = higher.

Experiments:
Test in all cases: growth of human tumour cells (NCI), 48 h
A498 = tested on: A498
NCI-H226 = tested on: NCI-H226
SN12C = tested on: SN12C
DU-145 = tested on: DU-145
OVCAR-3 = tested on: OVCAR-3
SNB-19 = tested on: SNB-19
UACC-257 = tested on: UACC-257
MCF7 = tested on: MCF7
Hs-578T = tested on: Hs-578T
U-251 = tested on: U-251
SK-MEL-2 = tested on: SK-MEL-2
MDA-MB-435 = tested on: MDA-MB-435
MDA-MB-231 = tested on: MDA-MB-231
786-0 = tested on: 786-0
HOP-62 = tested on: HOP-62
SW-620 = tested on: SW-620
SF-539 = tested on: SF-539
CAKI-1 = tested on: CAKI-1
NCI-H522 = tested on: NCI-H522
KM12 = tested on: KM12

| SMILES | GI50 (A498) | GI50 (NCI-H226) | GI50 (SN12C) | GI50 (DU-145) | GI50 (OVCAR-3) | GI50 (SNB-19) | GI50 (UACC-257) | GI50 (MCF7) | GI50 (Hs-578T) | GI50 (U-251) | GI50 (SK-MEL-2) | GI50 (MDA-MB-435) | GI50 (MDA-MB-231) | GI50 (786-0) | GI50 (HOP-62) | GI50 (SW-620) | GI50 (SF-539) | GI50 (CAKI-1) | GI50 (NCI-H522) | GI50 (KM12) |
| --- | --- | --- | --- | --- | --- | --- | --- | --- | --- | --- | --- | --- | --- | --- | --- | --- | --- | --- | --- | --- |
| COc1cc(C(c2cc(OC)c(OC)c(OC)c2)N2C(=O)CCC2C(=O)O)cc(OC)c1OC (centres undefined) | > 100 µM (inactive) | > 100 µM (inactive) | > 100 µM (inactive) | > 100 µM (inactive) | > 100 µM (inactive) | > 100 µM (inactive) | > 100 µM (inactive) | > 100 µM (inactive) | > 100 µM (inactive) | > 100 µM (inactive) | > 100 µM (inactive) | > 100 µM (inactive) | > 100 µM (inactive) | > 100 µM (inactive) | > 100 µM (inactive) | > 100 µM (inactive) | > 100 µM (inactive) | > 100 µM (inactive) | > 100 µM (inactive) | > 100 µM (inactive) |
| C=CC(=O)C#Cc1cnc(OC)nc1OC | 34.3 µM (inactive) | > 48.5 µM (inactive) | 18.7 µM (inactive) | 37.2 µM (inactive) | 18.2 µM (inactive) | 19.1 µM (inactive) | 6.38 µM (inactive) | 5.13 µM (inactive) | 33.3 µM (inactive) | 13.9 µM (inactive) | 22.1 µM (inactive) | 16.6 µM (inactive) | 19.8 µM (inactive) | 4.15 µM (inactive) | 22.8 µM (inactive) | 4.95 µM (inactive) | 13.3 µM (inactive) | 7.29 µM (inactive) | 6.41 µM (inactive) | 13.4 µM (inactive) |
| CC1=C(C(=O)N[C@@H](CC(C)C)C(=O)O)N2C(=O)[C@@H](NC(=O)[C@@H](N)Cc3ccccc3)[C@H]2SC1 | > 100 µM (inactive) | > 100 µM (inactive) | > 100 µM (inactive) | > 100 µM (inactive) | > 100 µM (inactive) | > 100 µM (inactive) | > 100 µM (inactive) | > 100 µM (inactive) | > 100 µM (inactive) | > 100 µM (inactive) | > 100 µM (inactive) | > 100 µM (inactive) | > 100 µM (inactive) | > 100 µM (inactive) |  | > 100 µM (inactive) | > 100 µM (inactive) | > 100 µM (inactive) | > 100 µM (inactive) | > 100 µM (inactive) |
| CC(C#N)(c1ccccc1)N(CCc1ccccc1)C(=O)Oc1ccccc1 (centres undefined) | > 100 µM (inactive) | 38.5 µM (inactive) | > 100 µM (inactive) | > 100 µM (inactive) | > 100 µM (inactive) | 44.2 µM (inactive) | > 100 µM (inactive) | > 100 µM (inactive) | 35.5 µM (inactive) | > 100 µM (inactive) | > 100 µM (inactive) | > 100 µM (inactive) | > 100 µM (inactive) | 40.6 µM (inactive) | 50.2 µM (inactive) | > 100 µM (inactive) | > 100 µM (inactive) | > 100 µM (inactive) | > 100 µM (inactive) | > 100 µM (inactive) |
| CC1(C)SC2C(NC(=O)Cc3ccccc3)C(=O)N2C1C(=O)O (centres undefined) | > 100 µM (inactive) | 34 µM (inactive) | > 100 µM (inactive) | > 100 µM (inactive) | > 100 µM (inactive) | > 100 µM (inactive) | > 100 µM (inactive) | > 100 µM (inactive) | > 100 µM (inactive) | > 100 µM (inactive) | > 100 µM (inactive) | > 100 µM (inactive) | > 100 µM (inactive) | > 100 µM (inactive) | > 100 µM (inactive) | > 100 µM (inactive) | > 100 µM (inactive) | > 100 µM (inactive) | > 100 µM (inactive) | > 100 µM (inactive) |
| CCC12CC(c3ccccc3)C(C(=O)N1)C(=O)N2 (centres undefined) | > 100 µM (inactive) | > 100 µM (inactive) | > 100 µM (inactive) | > 100 µM (inactive) | > 100 µM (inactive) | > 100 µM (inactive) | > 100 µM (inactive) | > 100 µM (inactive) | > 100 µM (inactive) | > 100 µM (inactive) | > 100 µM (inactive) | > 100 µM (inactive) | > 100 µM (inactive) | > 100 µM (inactive) | > 100 µM (inactive) | > 100 µM (inactive) | > 100 µM (inactive) | > 100 µM (inactive) | > 100 µM (inactive) | > 100 µM (inactive) |
| O=C1c2c(Br)sc(Br)c2[C@H]2NC(=S)O[C@@H]12 | 23.5 µM (inactive) | 20.7 µM (inactive) | 17.6 µM (inactive) | 16 µM (inactive) | 7.94 µM (inactive) | 21.7 µM (inactive) | 16.8 µM (inactive) | 16.1 µM (inactive) | 23.2 µM (inactive) | 13.2 µM (inactive) | 17.4 µM (inactive) | 13.8 µM (inactive) | 17.9 µM (inactive) | 14.2 µM (inactive) | 18 µM (inactive) | 3.18 µM (inactive) | 17.9 µM (inactive) | 11.8 µM (inactive) | 1.86 µM (inactive) | 17.9 µM (inactive) |
| CC1OC(OC2C[C@](O)(C(=O)CF)Cc3c(O)c4c(c(O)c32)C(=O)c2ccccc2C4=O)CC(N)C1O (some centres undefined) | 0.233 µM (active) | < 0.01 µM (active) | < 0.01 µM (active) | < 0.01 µM (active) | 0.233 µM (active) | < 0.014 µM (active) | 0.0794 µM (active) | < 0.01 µM (active) | 0.0103 µM (active) | < 0.013 µM (active) | 0.168 µM (active) | 0.0746 µM (active) | 0.043 µM (active) | < 0.01 µM (active) | < 0.01 µM (active) | < 0.0116 µM (active) | 0.0561 µM (active) | < 0.01 µM (active) | 0.0202 µM (active) | 0.0305 µM (active) |
| COc1cccc(-c2cc(O)c3cc(Cl)cnc3n2)c1 | 0.131 µM (active) | 0.08 µM (active) | 0.143 µM (active) | 0.358 µM (active) | 0.0369 µM (active) | 0.122 µM (active) | 6.92 µM (inactive) | 0.484 µM (active) | 0.0743 µM (active) | 0.0693 µM (active) | 0.757 µM (active) | 0.0155 µM (active) | 0.338 µM (active) | 0.102 µM (active) | 0.0809 µM (active) | 0.0488 µM (active) | 0.0348 µM (active) | 0.0546 µM (active) | 0.0577 µM (active) | 0.0887 µM (active) |
| COC1=CCC2=C(CCN(C(=O)C3CCC3)C2Cc2ccc(OC)c(O)c2)C1 (centres undefined) | 19.4 µM (inactive) | 49.1 µM (inactive) | 19.5 µM (inactive) | 20.3 µM (inactive) | 5.93 µM (inactive) | 35.8 µM (inactive) | 17.3 µM (inactive) | 7.14 µM (inactive) | 14.6 µM (inactive) | 28.9 µM (inactive) | 24.2 µM (inactive) | 3.09 µM (inactive) | 21.1 µM (inactive) | 18.2 µM (inactive) | 14.3 µM (inactive) | 12.8 µM (inactive) | 30.5 µM (inactive) | 30.6 µM (inactive) | 16.6 µM (inactive) | 6.18 µM (inactive) |
| Cc1cc2nn(C3CCCCO3)nc2cc1C (centres undefined) | 60.4 µM (inactive) | > 100 µM (inactive) | > 100 µM (inactive) | > 100 µM (inactive) | > 100 µM (inactive) | > 100 µM (inactive) | > 100 µM (inactive) | > 100 µM (inactive) | > 100 µM (inactive) | > 100 µM (inactive) | > 100 µM (inactive) | > 100 µM (inactive) | > 100 µM (inactive) | > 100 µM (inactive) | > 100 µM (inactive) |  | > 100 µM (inactive) | > 100 µM (inactive) | > 100 µM (inactive) | > 100 µM (inactive) |
| CCOC1Oc2ccccc2-c2nc(SC)ncc21 (centres undefined) | 28.9 µM (inactive) | > 100 µM (inactive) | 89.7 µM (inactive) | 96.6 µM (inactive) | > 100 µM (inactive) | > 100 µM (inactive) | > 100 µM (inactive) | 66.1 µM (inactive) | 79.8 µM (inactive) | > 100 µM (inactive) | > 100 µM (inactive) | > 100 µM (inactive) | 62.8 µM (inactive) | > 100 µM (inactive) |  | > 100 µM (inactive) | > 100 µM (inactive) | > 100 µM (inactive) | 71.3 µM (inactive) | > 100 µM (inactive) |
| Cc1ccccc1/N=C/N(C)C | 91.6 µM (inactive) | 48.4 µM (inactive) | 66.5 µM (inactive) | 44.2 µM (inactive) | 17.7 µM (inactive) | 56.8 µM (inactive) | 22 µM (inactive) | 31.5 µM (inactive) | 44.7 µM (inactive) | 39.4 µM (inactive) | 15 µM (inactive) | 42.1 µM (inactive) | 39 µM (inactive) | 70.3 µM (inactive) | 58.6 µM (inactive) |  | 61.8 µM (inactive) | > 100 µM (inactive) | 21.2 µM (inactive) |  |
| CCOC(=O)CO/N=C1/C(=C2/C(=O)Nc3ccccc32)Nc2ccccc21 | 15.1 µM (inactive) |  | 31.3 µM (inactive) | > 100 µM (inactive) | 12.4 µM (inactive) | 10 µM (inactive) | > 100 µM (inactive) | 50.1 µM (inactive) | 36.2 µM (inactive) | 6.78 µM (inactive) | 39.6 µM (inactive) | > 100 µM (inactive) | 7.4 µM (inactive) | 7.5 µM (inactive) | 8.3 µM (inactive) | 34.7 µM (inactive) | 41.1 µM (inactive) | 20.1 µM (inactive) | > 100 µM (inactive) | 0.0955 µM (active) |
